Where “and” joins values, the source holds several entries; their conditions need not be identical. Identical values can stand only once.
Key:
[1] = tested on: Human breast cancer MDA MB 231; assay: Bone metastasis model, Example 2: treatment on Day 5, X-ray on Day 20; format: in vivo, NMRI nude mice; conditions: 10 mg/kg i.v. on Day 5
Procedure: (§1) Human breast cancer MDA MB 231, injected to NMRI nude mice intracardially
30 NMRI nude mice received 500,000 of MDA-MB 231 breast cancer tumor cells intracardially (Day 0). The tumor cells metastasized to the bones and the growth of the tumor in the bones lead to bone destruction. In addition, the development of tumors near the tumor cell injection site is observed. After 5 days (Day 5), 15 of the 30 animals were treated with the Test Compound (10 mg/kg, i.v.). On Day 20 the experiment was terminated and the size and number of bone metastases were measured in each animal using the X-ray technology described in example 1. In addition, the numer of animals which developed tumors at the tumor cell injection site was determined.

[2] = tested on: Human breast cancer MDA MB 231; assay: Bone metastasis model, Example 1: treatment on Day 10, X-ray on Day 22, survival; format: in vivo, NMRI nude mice
Procedure: as §1
Four days before tumor cells implantation, the baseline bone structure of the mice was determined by X-ray. 30 NMRI nude mice received 500,000 of MDA-MB 231 breast cancer tumor cells intracardially (Day 0). The tumor cells metastasized to the bones and the growth of the tumor in the bones lead to bone destruction. After the period of 10 days (Day 10), 10 of the […] animals were treated with the Test Compound (10 mg/kg, i.v.). The size and number of bone metastases were monitored 4 days before tumor cell implantation (baseline) and on Day 22 in each animal using the X-ray technology described below.
The mice underwent an anaesthesia with a mixture of Rompun (Rompun 2% Bayer) diluted with sodium chloride solution(Braun) by 1:10 and Ketavet ( Pharmacia GmbH 100 mg/ml), diluted by 1:5 with isotonic sodium chloride solution. For application of the narcotics, 1 ml sterile syringes (Codan Medical) and cannula (Braun Sterican, size 18) were used.
Once the tolerance stage was reached, the mice were attached to a 1 mm strong acrylic glass and additionally taped with a self-adhesive tape (sticky side facing the animal). The acrylic glass served as surface on which the animals underwent the X-ray.
At the console of the Mammomat (run by the software “Detector” (Ifg) on Windows NT platform), the standard setting of 35 kV and 400 mAs was adjusted. The setting was chosen in such a way to allow a good contrasting of the entire skeletal system and visibility of finest changes/aberrations of the bone structure and morphology. The resolution of the systems lies at 0,27 μm.
After initializing the Software the module “Zoomed Modus” was chosen for the detector and the ROIs 2-3 were selected in accordance with the previously selected positioning of the mouse. The regulator Image High was adjusted to 2000.
The actual measurements were started as soon as the Offset measurings and the reference measurings had been performed. The flexible table was brought into position (80 mm) and was advanced at a speed of 25,9 mm/sec. The final position of the table was chosen in such a way that the entire body of the mouse could be X-rayed all at once during the examination. The reference measuring was subtracted from each gained Image and was stored as a DICOM-file or as a BMP-file.
Analysis of the treatment was performed on Day 22 by evaluating twice the constructed exposures of the mice and searching for destructive processes of the skeletal system (focussing mainly on the long bones, spine and pelvis). The extend/area of the destructive processes/bone metastasis were determined with a special DICOM-Software (based on Microsoft Excel).

[3] = mean per animal, measured on Day 20 by X-ray, 10 mg/kg
[4] = 10 mg/kg i.v. on Day 10, result in words

C=CCC1C(=O)C(C)(C)C(O)CC(=O)OC(c2ccc3sc(C)nc3c2)CC2OC2(C)CCCC(C)C1O (stereo not shown) [Test Compound, 7,11-dihydroxy-3-(2-methyl-benzothiazol-5-yl)-10-(prop-2-en-1-yl)-8,8,12,16-tetramethyl-4,17-dioxabicyclo[14.1.0]heptadecane-5,9-dione]
Number of bone-metastases [1, 3]: 0.7 and 0.7 ± 0.9 | Size of bone-metastases [1, 3]: 0.1 mm^2 and 0.1 ± 0.2 mm^2 | Number of animals which developed tumors at the tumor cell injection site ([1]; of 15 animals, Day 20): 0 | Effect on bone metastasis (FIG. 1) [2, 4]: inhibited bone metastasis | Effect on life time (FIG. 1) [2, 4]: prolongation of life time was observed | Mean Survival Time ([2]; 10 mg/kg i.v., single application on Day 10, MDA-MB 231 cells intracardially): 31.6 days | Mean Bone Tumor Area ([2]; 10 mg/kg i.v., single treatment on Day 10, X-ray analysis on Day 22, MDA-MB 231 cells intracardially): 5.9 mm^2
